The text below walks through data of patent US8648076B2, “Cysteine protease inhibitors and their therapeutic applications” (Hybrigenics SA, priority 2005, dated 2014).

Holding throughout (format): biochemical
One assay concerns the target T1, USP5 (Homo sapiens, UniProt P45974).
T1 sequence (P45974 1-858): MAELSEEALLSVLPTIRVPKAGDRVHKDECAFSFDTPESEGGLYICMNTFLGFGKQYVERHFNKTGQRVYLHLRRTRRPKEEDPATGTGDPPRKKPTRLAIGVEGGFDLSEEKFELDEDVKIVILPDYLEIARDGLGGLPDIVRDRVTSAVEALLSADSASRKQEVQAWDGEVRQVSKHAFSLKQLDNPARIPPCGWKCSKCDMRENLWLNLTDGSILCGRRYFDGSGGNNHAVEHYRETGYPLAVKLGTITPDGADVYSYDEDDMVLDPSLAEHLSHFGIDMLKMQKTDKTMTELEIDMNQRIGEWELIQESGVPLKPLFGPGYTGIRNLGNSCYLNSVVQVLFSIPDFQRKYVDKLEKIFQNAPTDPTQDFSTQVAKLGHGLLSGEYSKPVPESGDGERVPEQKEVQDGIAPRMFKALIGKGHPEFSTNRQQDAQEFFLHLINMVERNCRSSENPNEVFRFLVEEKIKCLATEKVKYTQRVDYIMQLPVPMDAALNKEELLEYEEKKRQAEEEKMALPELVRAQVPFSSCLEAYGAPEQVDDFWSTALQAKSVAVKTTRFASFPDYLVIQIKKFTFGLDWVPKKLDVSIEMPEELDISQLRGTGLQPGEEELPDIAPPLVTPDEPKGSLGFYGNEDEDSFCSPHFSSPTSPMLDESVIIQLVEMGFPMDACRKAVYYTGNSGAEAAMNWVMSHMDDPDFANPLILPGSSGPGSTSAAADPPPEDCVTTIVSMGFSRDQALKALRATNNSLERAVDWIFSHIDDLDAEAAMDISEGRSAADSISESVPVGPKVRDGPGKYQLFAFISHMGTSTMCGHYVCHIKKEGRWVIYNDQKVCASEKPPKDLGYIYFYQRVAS
The experiment in a line: USP5 activity assay. Particulars: 400 nM Ub-AMC, 300 pM enzyme, 30 min pre-incubation at 25° C., 60 min at 37° C.; sigmoidal fit; AF: Autofluorescent; read-out: USP 5 (inhibition of cysteine protease activity). The procedure: Bovine Serum Albumin 0.05 mg·ml^−1 pH7.6). Compounds stocks (100 mM) were stored at −20° C. in DMSO. […] Reactions were performed as duplicates in Black LJL 96 well plates (HE microplates; Molecular Devices; 20 μl final reaction volume). The substrate concentration for USP5 was 400 nM Ub-AMC (Boston Biochem). The concentrations of the enzyme (USP5) in specificity assays was 300 pM. The concentrations were determined in order to perform specificity assays under initial velocities at fixed substrate concentration. Compounds were pre-incubated with enzymes for 30 minutes at 25° C. Reactions were initiated by addition of substrate to the plates containing the enzymes (+/− compounds) diluted in assay buffer. Reactions were incubated for 60 minutes at 37° C. Reactions were stopped by adding acetic acid (100 mM final). Readings were performed on a Pherastar Fluorescent Reader (BMG). λ Emission 380 nm; λ Excitation=460 nm. Data (mean values +/− standard deviation) were analyzed as % of control (no compound) and plotted as percentage versus the Log of the compound concentration using GraphPad (Prism). Data were fitted to a sigmoidal model (variable slope).

For the next assay, the target named is T2, USP7 (Homo sapiens, UniProt Q93009).
T2 construct: His tag (from pFastBac-HT vector) (N); made in house; host or cells: insect cells (Sf9 or High Five), baculovirus
The experiment in a line: USP7 activity assay.

A further assay has as its target T3, Uch-L3 (Homo sapiens, UniProt P15374).
T3 sequence (P15374 1-230): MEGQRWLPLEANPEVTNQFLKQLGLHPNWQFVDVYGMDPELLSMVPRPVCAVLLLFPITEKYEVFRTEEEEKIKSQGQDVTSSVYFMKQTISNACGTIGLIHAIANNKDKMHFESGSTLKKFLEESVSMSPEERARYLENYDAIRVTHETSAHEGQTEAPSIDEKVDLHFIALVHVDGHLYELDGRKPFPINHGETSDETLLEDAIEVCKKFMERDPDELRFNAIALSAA
The experiment in a line: UCH-L3 activity assay. Particulars: 400 nM Ub-AMC, 13 pM enzyme, 30 min pre-incubation at 25° C., 60 min at 37° C.; sigmoidal fit; AF: Autofluorescent; read-out: Uch-L3 (inhibition of cysteine protease activity). An outline of the steps: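 Compounds were pre-incubated with 13 pM Uch-L3 for 30 min at 25° C in pH 7.6 buffer with 0.05 mg/ml BSA. Reactions ran 60 min at 37° C with 400 nM Ub-AMC, were stopped with 100 mM acetic acid, and AMC fluorescence was read. Duplicates were expressed as % of no-compound control and fitted to a variable-slope sigmoid.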

[1] abbreviates: 400 nM Ub-AMC, 152 pM enzyme, 30 min pre-incubation at 25° C., 60 min at 37° C., sigmoidal fit, read-out: USP 7 (inhibition of cysteine protease activity).

Where two headings read alike, the source gives them in different places. A value given as a limit tells only on which side of the number the result lay.

T2 sequence (Q93009 whole entry): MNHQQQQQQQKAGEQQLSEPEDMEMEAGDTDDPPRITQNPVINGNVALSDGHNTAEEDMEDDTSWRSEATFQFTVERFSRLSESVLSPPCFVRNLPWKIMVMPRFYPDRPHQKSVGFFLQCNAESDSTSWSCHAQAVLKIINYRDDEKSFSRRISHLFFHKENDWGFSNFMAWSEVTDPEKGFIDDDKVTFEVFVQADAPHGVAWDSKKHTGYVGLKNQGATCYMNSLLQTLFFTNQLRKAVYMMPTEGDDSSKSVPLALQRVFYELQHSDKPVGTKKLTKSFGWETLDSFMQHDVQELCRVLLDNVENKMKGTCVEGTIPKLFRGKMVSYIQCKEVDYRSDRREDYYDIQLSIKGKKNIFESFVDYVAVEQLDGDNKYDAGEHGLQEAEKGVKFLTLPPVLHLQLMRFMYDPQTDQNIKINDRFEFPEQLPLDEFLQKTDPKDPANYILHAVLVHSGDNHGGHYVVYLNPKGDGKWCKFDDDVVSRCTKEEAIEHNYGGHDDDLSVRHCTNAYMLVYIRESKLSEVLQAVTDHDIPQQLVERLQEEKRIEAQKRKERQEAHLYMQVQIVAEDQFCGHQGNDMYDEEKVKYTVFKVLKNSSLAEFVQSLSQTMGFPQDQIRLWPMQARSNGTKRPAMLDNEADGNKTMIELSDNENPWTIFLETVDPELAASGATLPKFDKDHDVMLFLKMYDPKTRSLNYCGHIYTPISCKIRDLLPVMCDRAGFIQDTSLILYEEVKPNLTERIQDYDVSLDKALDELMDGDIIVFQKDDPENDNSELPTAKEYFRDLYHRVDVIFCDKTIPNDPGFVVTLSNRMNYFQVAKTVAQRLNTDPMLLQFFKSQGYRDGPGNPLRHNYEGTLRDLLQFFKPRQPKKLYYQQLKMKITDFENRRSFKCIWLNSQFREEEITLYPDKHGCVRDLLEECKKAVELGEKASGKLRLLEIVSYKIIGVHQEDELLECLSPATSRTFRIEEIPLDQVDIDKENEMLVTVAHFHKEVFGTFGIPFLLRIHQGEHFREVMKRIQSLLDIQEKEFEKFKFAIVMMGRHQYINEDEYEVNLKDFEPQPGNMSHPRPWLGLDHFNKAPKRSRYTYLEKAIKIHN

`N#Cc1nc2c(nc1C#N)-c1ccc(Cl)cc1C2=NOCCOc1ccccc1` [Example 27b, 7-Chloro-9-(2-phenoxy-ethoxyimino)-9H-indeno[1,2-b]pyrazine-2,3-dicarbonitrile]: the IC50 is greater than 100000 nM on USP5, greater than 100000 nM against USP7 and 1700 nM at Uch-L3.

`C=CCON=C1c2ccc(Cl)cc2-c2nc(C#N)c(C#N)nc21` [Example 27c, 9-Allyloxyimino-6-chloro-9H-indeno[1,2-b]pyrazine-2,3-dicarbonitrile]: the IC50 at USP5 was 1700 nM; at USP7, 3500 nM; on Uch-L3 it was 502 nM.

Take `Cc1c(F)ccc2c1C(=O)c1nc(C#N)c(C#N)nc1-2` [Example 30, 7-Fluoro-8-methyl-9-oxo-9H-indeno[1,2-b]pyrazine-2,3-dicarbonitrile]: the IC50 at USP5 is 1610 nM; at USP7 (setting [1]), 2220 nM; at Uch-L3, 339 nM.

For the compound `N#Cc1nc2c(nc1C#N)-c1cc(Cl)c(Cl)cc1C2=O` [Example 31, 6,7-dichloro-9-oxo-9H-indeno[1,2-b]pyrazine-2,3-dicarbonitrile], the values for the IC50 at USP5, on USP7 and at Uch-L3 were 329 nM, 591 nM and 104 nM, respectively.

On to `CCc1ccc2c(c1)-c1nc(C#N)c(C#N)nc1C2=O` [Example 32, 6-ethyl-9-oxo-9H-indeno[1,2-b]pyrazine-2,3-dicarbonitrile], for which the figures for the IC50 at USP5, against USP7 and at Uch-L3 were 1670 nM, 2590 nM and 258 nM, respectively.

For the compound `C=CCON=C1c2ccccc2-c2nc(C(N)=O)c(C#N)nc21` [Example 34a, 9-Allyloxyimino-2-cyano-9H-indeno[1,2-b]pyrazine-3-carboxylic acid amide], the IC50 on USP5 was determined as 143 nM; against USP7, 500 nM; on Uch-L3 it was 32 nM.

For `CCON=C1c2ccccc2-c2nc(C(N)=O)c(C#N)nc21` [Example 34b, 2-Cyano-9-ethoxyimino-9H-indeno[1,2-b]pyrazine-3-carboxylic acid amide], the IC50 came out at 523 nM at USP5, 2510 nM on USP7 and 99 nM at Uch-L3.

For the compound `COCCON=C1c2ccccc2-c2nc(C(N)=O)c(C#N)nc21` [Example 34c, 2-Cyano-9-(2-methoxy-ethoxyimino)-9H-indeno[1,2-b]pyrazine-3-carboxylic acid amide], the IC50 came to 606 nM at USP5, 2880 nM on USP7 and 109 nM on Uch-L3.

Turning to `CON=C1c2ccccc2-c2nc(C(N)=O)c(C#N)nc21` [Example 34d, 2-Cyano-9-methoxyimino-9H-indeno[1,2-b]pyrazine-3-carboxylic acid amide], the IC50 came to 113 nM on USP5, 396 nM on USP7 and 37 nM at Uch-L3.

For `N#Cc1nc2c(nc1C(N)=O)-c1ccccc1C2=O` [Example 36, 2-cyano-9-oxo-9H-indeno[1,2-b]pyrazine-3-carboxylic acid amide], the IC50 turned out to be 208 nM at USP5, 1270 nM against USP7 and 178 nM on Uch-L3.

Consider `CCOC(=O)CO/N=C1\c2ccccc2-c2nc(C(N)=O)c(C#N)nc21` [Example 37, (3-carbamoyl-2-cyano-indeno[1,2-b]pyrazin-9-ylideneaminooxy)-acetic acid ethyl ester], for which the IC50 was 799 nM on USP5, 2330 nM on USP7 (setting [1]) and 393 nM on Uch-L3.

`N#Cc1nc2c(nc1C(N)=O)-c1ccccc1/C2=N\OCC(=O)O` [Example 38, (3-carbamoyl-2-cyano-indeno[1,2-b]pyrazin-9-ylideneaminooxy)-acetic acid]: the figures for the IC50 on USP5, against USP7 and on Uch-L3 were 1850 nM, 4030 nM and 758 nM, respectively.

Take `CCOC(=O)CNC(=O)CO/N=C1\c2ccccc2-c2nc(C(N)=O)c(C#N)nc21` [Example 40, [2-(3-carbamoyl-2-cyano-indeno[1,2-b]pyrazin-9-ylideneaminooxy)-acetylamino]-acetic acid ethyl ester]: the IC50 at USP5 was determined as 1130 nM; on USP7 (setting [1]), 2800 nM; on Uch-L3 it was 245 nM.

Regarding `N#Cc1nc2c(nc1C(N)=O)-c1ccccc1/C2=N\OCC(=O)NCC(=O)O` [Example 41, [2-(3-carbamoyl-2-cyano-indeno[1,2-b]pyrazin-9-ylideneaminooxy)-acetylamino]-acetic acid], the results for the IC50 at USP5, at USP7 and on Uch-L3 were 1890 nM, 4280 nM and 328 nM, respectively.

In the case of `N#Cc1nc2c(nc1O)-c1ccc(Cl)cc1C2=O` [Example 42, 7-chloro-3-hydroxy-9-oxo-9H-indeno[1,2-b]pyrazine-2-carbonitrile], the IC50 on USP5, at USP7 and on Uch-L3 was greater than 100000 nM in each case.

In the case of `N#Cc1nc2c(nc1C#N)-c1ccc(Cl)cc1C2=NNC(N)=O` [Example 43, 9-[(aminocarbonyl)hydrazono]-7-chloro-9H-indeno[1,2-b]pyrazine-2,3-dicarbonitrile], the IC50 on USP5 was greater than 100000 nM; against USP7, greater than 100000 nM; on Uch-L3, 13500 nM.
